Measurements from patent publication US20200385371A1 (Propellon Therapeutics Inc., priority 2017, published 2020).

What was measured:
WDR5 [1] = biological target: T1, WDR5 (Homo sapiens, UniProt P61964); experiment: Fluorescence Polarization (FP) binding assay
Summary of the method: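 Buffer was pH 6.5 sodium phosphate (80 mM) with 20 mM KCl and 0.008% Triton X-100; 9-Ala-FAM probe at 20 nM used 0.05 μM WDR5 and 480/540 nm polarization, H3 (1-15) probe at 30 nM used 0.3 μM WDR5 and 485/528 nm. Quadruplicate data were hyperbola-fitted to give Kdisp.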

MV4-11 cells = experiment: Cell proliferation assay (ATPlite); format: cell-based; conditions: Homo sapiens, 120 h; MV4-11 cells, five days; read-out: GI MV411 EC50
Summary of the method: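 ATPlite luminescence after five days' culture (37° C, 5% CO2) gives viability. Compounds dosed in 10 concentrations up to 10 μM against DMSO; 1,000 cells/well seeded in Alpha-MEM/10% FBS.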

WDR5 [2] = biological target: T1, WDR5; experiment: Surface Plasmon Resonance (SPR) assay; format: binding; set-up: Full length WDR5 with an N-terminal His tag and C-terminal AviTag; His tag (N); made in house; host or cells: E. coli; conditions: read-out: SPR Kd
Summary of the method: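 Full-length biotinylated WDR5 (N-His, C-AviTag, E. coli) captured (~3000 RU) on streptavidin SA chip; Biacore T200. HBS-EP pH 7.4 plus 5% DMSO running buffer, 40 μl/min.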

| Compound | IC50 (WDR5 [1]) | EC50 (MV4-11 cells) | Kd (WDR5 [2]) |
| --- | --- | --- | --- |
| C[C@@H]1CN(c2ncc(-c3c(F)cc(N4CCN(C)[C@@H](C)C4)c(NC(=O)c4c[nH]c(=O)cc4C(F)F)c3F)cn2)CCO1 [Example 129, 4-(Difluoromethyl)-N-(6-((S)-3,4-dimethylpiperazin-1-yl)-2,4-difluoro-3-(2-((R)-2-methylmorpholino)pyrimidin-5-yl)phenyl)-6-oxo-1,6-dihydropyridine-3-carboxamide] | 8.79 nM | 13.5 nM | 0.34 nM |
| C[C@@H]1CN(c2cc(F)c(C3=CCN(C(=O)OC4(C)CCC4)CC3)c(F)c2NC(=O)c2c[nH]c(=O)cc2C(F)(F)F)C[C@H](C)N1C [Example 144, 1-Methylcyclobutyl 4-(2,6-difluoro-3-(6-oxo-4-(trifluoromethyl)-1,6-dihydropyridine-3-carboxamido)-4-((3S,5R)-3,4,5-trimethylpiperazin-1-yl)phenyl)-5,6-dihydropyridine-1(2H)-carboxylate] | 12.7 nM | 11.4 nM | 1.53 nM |
| COc1cnc(N2CCC=C(c3c(F)cc(N4C[C@@H](C)N(C)[C@@H](C)C4)c(NC(=O)c4c[nH]c(=O)cc4C(F)(F)F)c3F)C2)nc1 [Example 138, N-(2,4-difluoro-3-(1-(5-methoxypyrimidin-2-yl)-1,2,5,6-tetrahydropyridin-3-yl)-6-((3S,5R)-3,4,5-trimethylpiperazin-1-yl)phenyl)-6-oxo-4-(trifluoromethyl)-1,6-dihydropyridine-3-carboxamide] | 19.5 nM | 109 nM | 1.93 nM |
| C[C@@H]1CN(c2ncc(-c3c(F)cc(N4CCN(C)[C@@H](C)C4)c(NC(=O)c4c[nH]c(=O)cc4C(F)F)c3F)cn2)C[C@H](C)O1 [Example 33, 4-(Difluoromethyl)-N-(3-(2-((2S,6R)-2,6-dimethylmorpholino)pyrimidin-5-yl)-6-((S)-3,4-dimethylpiperazin-1-yl)-2,4-difluorophenyl)-6-oxo-1,6-dihydropyridine-3-carboxamide] | 14.9 nM | 14.5 nM | 0.61 nM |
| C[C@@H]1CN(c2nccc(-c3c(F)cc(N4C[C@@H](C)N(C)[C@@H](C)C4)c(NC(=O)c4c[nH]c(=O)cc4C(F)(F)F)c3F)n2)C[C@H](C)O1 [Example 77, N-(3-(2-((2S,6R)-2,6-dimethylmorpholino)pyrimidin-4-yl)-2,4-difluoro-6-((3S,5R)-3,4,5-trimethylpiperazin-1-yl)phenyl)-6-oxo-4-(trifluoromethyl)-1,6-dihydropyridine-3-carboxamide] | 10.1 nM | 108 nM | 1.12 nM |
| COc1cnc(N2CCC=C(c3c(F)cc(N4CCN(C)[C@@H](C)C4)c(NC(=O)c4c[nH]c(=O)cc4C(F)F)c3F)C2)nc1 [Example 49, (S)-4-(difluoromethyl)-N-(6-(3,4-dimethylpiperazin-1-yl)-2,4-difluoro-3-(1-(5-methoxypyrimidin-2-yl)-1,2,5,6-tetrahydropyridin-3-yl)phenyl)-6-oxo-1,6-dihydropyridine-3-carboxamide] | 21.7 nM | 332 nM | 2.68 nM |
| C[C@@H]1CN(c2cc(F)c(-c3cnc(N4CC5CCC(C4)O5)nc3)c(F)c2NC(=O)c2c[nH]c(=O)cc2C(F)F)C[C@H](C)N1C [Example 156, N-(3-(2-(8-oxa-3-azabicyclo[3.2.1]octan-3-yl)pyrimidin-5-yl)-2,4-difluoro-6-((3S,5R)-3,4,5-trimethylpiperazin-1-yl)phenyl)-4-(difluoromethyl)-6-oxo-1,6-dihydropyridine-3-carboxamide] | 15.4 nM | 81.2 nM | 1.96 nM |
| COc1cnc(N2CCC=C(c3c(F)cc(N4CCN(C)[C@@H](C)C4)c(NC(=O)c4c[nH]c(=O)cc4C(F)(F)F)c3F)C2)nc1 [Example 52, (S)—N-(6-(3,4-dimethylpiperazin-1-yl)-2,4-difluoro-3-(1-(5-methoxypyrimidin-2-yl)-1,2,5,6-tetrahydropyridin-3-yl)phenyl)-6-oxo-4-(trifluoromethyl)-1,6-dihydropyridine-3-carboxamide] | 20.1 nM | 285 nM | 0.46 nM |
| C[C@@H]1CN(c2cc(F)c(-c3cnc(N4CCO[C@@H](C)C4)nc3)c(F)c2NC(=O)c2c[nH]c(=O)cc2C(F)(F)F)C[C@H](C)N1C [Example 101, N-(2,4-difluoro-3-(2-((S)-2-methylmorpholino)pyrimidin-5-yl)-6-((3S,5R)-3,4,5-trimethylpiperazin-1-yl)phenyl)-6-oxo-4-(trifluoromethyl)-1,6-dihydropyridine-3-carboxamide] | 21 nM | 11.8 nM | 6.17 nM |
| C[C@@H]1CN(c2ncc(-c3c(F)cc(N4CCN(C)[C@@H](C)C4)c(NC(=O)c4cn(C)c(=O)cc4C(F)F)c3F)cn2)C[C@@H](C)O1 [Example 162, 4-(Difluoromethyl)-N-(3-(2-((2R,6R)-2,6-dimethylmorpholino)pyrimidin-5-yl)-6-((S)-3,4-dimethylpiperazin-1-yl)-2,4-difluorophenyl)-1-methyl-6-oxo-1,6-dihydropyridine-3-carboxamide] | 14.1 nM | 210 nM | 1.25 nM |
| C[C@@H]1CN(c2ccc(-c3c(F)cc(N4C[C@@H](C)N(C)[C@@H](C)C4)c(NC(=O)c4c[nH]c(=O)cc4C(F)(F)F)c3F)cn2)C[C@H](C)O1 [Example 62, N-(3-(6-((2S,6R)-2,6-dimethylmorpholino)pyridin-3-yl)-2,4-difluoro-6-((3S,5R)-3,4,5-trimethylpiperazin-1-yl)phenyl)-6-oxo-4-(trifluoromethyl)-1,6-dihydropyridine-3-carboxamide] | 14.4 nM | 24.9 nM | 2.14 nM |
| Cc1sc(-c2c(F)cc(N3CCN(C)[C@@H](C)C3)c(NC(=O)c3ccc(F)cc3C(F)(F)F)c2F)nc1C(=O)N1CCCC1 [Example 154, (S)—N-(6-(3,4-dimethylpiperazin-1-yl)-2,4-difluoro-3-(5-methyl-4-(pyrrolidine-1-carbonyl)thiazol-2-yl)phenyl)-4-fluoro-2-(trifluoromethyl)benzamide] | 11.4 nM | 92 nM | 0.64 nM |
| C[C@H]1CN(c2cc(F)c(-c3cnc(N4C[C@H]5CC[C@@H](C4)O5)nc3)c(F)c2NC(=O)c2c[nH]c(=O)cc2C(F)(F)F)CCN1C [Example 89, N-(3-(2-((1R,5S)-8-oxa-3-azabicyclo[3.2.1]octan-3-yl)pyrimidin-5-yl)-6-((S)-3,4-dimethylpiperazin-1-yl)-2,4-difluorophenyl)-6-oxo-4-(trifluoromethyl)-1,6-dihydropyridine-3-carboxamide] | 12.5 nM | 30.8 nM | 0.83 nM |
| C[C@@H]1CN(c2nccc(-c3c(F)cc(N4CCN(C)[C@@H](C)C4)c(NC(=O)c4cn(C)c(=O)cc4C(F)F)c3F)n2)C[C@H](C)O1 [Example 57, 4-(Difluoromethyl)-N-(3-(2-((2S,6R)-2,6-dimethylmorpholino)pyrimidin-4-yl)-6-((S)-3,4-dimethylpiperazin-1-yl)-2,4-difluorophenyl)-1-methyl-6-oxo-1,6-dihydropyridine-3-carboxamide] | 26.8 nM | 367 nM | 7.63 nM |
| C[C@@H]1CN(c2cc(F)c(-c3cnc(N4CCOCC4)nc3)c(F)c2NC(=O)c2ccc(F)cc2C(F)F)C[C@H](C)N1C [Example 31, N-(2,4-difluoro-3-(2-morpholinopyrimidin-5-yl)-6-((3S,5R)-3,4,5-trimethylpiperazin-1-yl)phenyl)-2-(difluoromethyl)-4-fluorobenzamideformic Acid] | 19.6 nM | 96.6 nM | 1.04 nM |
| COc1cnc(N2CC=C(c3c(F)cc(N4CCN(C)[C@@H](C)C4)c(NC(=O)c4c[nH]c(=O)cc4C(F)(F)F)c3F)C2)nc1 [Example 51, (S)—N-(6-(3,4-dimethylpiperazin-1-yl)-2,4-difluoro-3-(1-(5-methoxypyrimidin-2-yl)-2,5-dihydro-1H-pyrrol-3-yl)phenyl)-6-oxo-4-(trifluoromethyl)-1,6-dihydropyridine-3-carboxamide] | 17 nM | 111 nM | 1.1 nM |
| C[C@@H]1CN(c2ncc(-c3c(F)cc(N4CCN(C)[C@@H](C)C4)c(NC(=O)c4c[nH]c(=O)cc4C(F)(F)F)c3F)cn2)C[C@@H](C)O1 [Example 85, N-(3-(2-((2R,6R)-2,6-dimethylmorpholino)pyrimidin-5-yl)-6-((S)-3,4-dimethylpiperazin-1-yl)-2,4-difluorophenyl)-6-oxo-4-(trifluoromethyl)-1,6-dihydropyridine-3-carboxamide] | 13.8 nM | 10.3 nM | 1.24 nM |
| C[C@H]1CN(c2cc(F)c(C3=CCN(C(=O)OC4CC(F)(F)C4)CC3)c(F)c2NC(=O)c2c[nH]c(=O)cc2C(F)(F)F)CCN1C [Example 47, 3,3-Difluorocyclobutyl (S)-4-(4-(3,4-dimethylpiperazin-1-yl)-2,6-difluoro-3-(6-oxo-4-(trifluoromethyl)-1,6-dihydropyridine-3-carboxamido)phenyl)-3,6-dihydropyridine-1(2H)-carboxylate] | 17.5 nM | 63 nM | 1.35 nM |
